These results are taken from publication PMC8211464 (Journal of medicinal chemistry, 2021).

For data set [1], the system named is Plasmodium berghei.
The test system of data set [2] is PfDd2. The data set is classed as cell-based. The note with it: Plasmodium falciparum, read-out: PfDd2 IC50±SD.
The subject of data set [3] is Pf 3D7. The data set is classed as cell-based. The note with it: Plasmodium falciparum, 3D7, read-out: Pf3D7 IC50±SD.
For data set [4], the system named is HepG2. The settings on record: read-out: HepG2 IC50; cytotoxicity; previously published ref 7 (Leven et al.); cited from earlier work.
The test system of data set [5] is FCB WT and FCB KD parasite lines. Put plainly: Potency against FCB lines with different pfmdr1 copy numbers. The note with it: FCB WT (two copies of pfmdr1) versus FCB KD (one functional copy). The data set is classed as cell-based, Plasmodium falciparum.
The nature of data set [6]: Snapshot in vivo PK, dried blood spots, LC-MS/MS. The settings on record: mouse, po; for k el: ke.
In data set [7] the test system is Pf Dd2 clone B2 (Dd2-B2). The data set is classed as cell-based, Plasmodium falciparum. The note with it: triplicate flasks of 2 × 10^9 Dd2-B2 parasites, 3× to 5× IC50.
Data set [8] has as its system Pf_Polδ. The data set is classed as cell-based, Plasmodium falciparum. The settings on record: Pf_Polδ parasites exposed to 45 nM (3 × IC50).
Data set [9] concerns compound 1-resistant clones Fl2-C4 and Fl3-C3. The data set is classed as cell-based, Plasmodium falciparum. The settings on record: clones Fl2-C4 and Fl3-C3, standard 72 h drug-response assay.
The subject of data set [10] is heme detoxification in Pf NF54 trophozoites. The data set is described as follows: Pyridine-based cellular heme fractionation assay. The data set is classed as cell-based, Plasmodium falciparum. The settings on record: Pf NF54, 1.5 to 2.5 × IC50.
The conditions of data set [11]: human, 5 h, 1 μM, pH 7.4.
The mark [12] stands for this setting: 4 × 30 mg/kg oral, monitored up to 30 days.

Like-named read-outs stand apart in the source and are kept apart here.

For orientation: IC50 means the midpoint of a concentration-inhibition curve. As a reminder, the AUC(0-inf) is the area under the concentration-time curve extrapolated to infinity. Low values mean low exposure, high ones high exposure. As a reminder, the AUC(0-t) is the area under the concentration-time curve up to a stated or last time point. A low value points to less exposure. As a reminder, the half-life is how long it takes for the measured level to halve.

As for `C[C@H]1[C@H](OC(=O)CCC(=O)O)O[C@@H]2O[C@@]3(C)CC[C@H]4[C@H](C)CC[C@@H]1[C@@]24OO3` [AS, artesunate, reference compound], the “cured (number of parasite-free mice on day 30)” value in data set [1] (4 × 30 mg/kg oral) is recorded as 0/10.
For the compound `CCN(CC)CCCC(C)Nc1ccnc2cc(Cl)ccc12` (centres unmarked) [CQ, Chloroquine], the IC50 in data set [2] was 230 ± 100 nM; in data set [3], 6 ± 2 nM. In addition, the “cured (number of parasite-free mice on day 30)” value in [1] (4 × 30 mg/kg oral) is reported as 0/10.
Consider `N/C(CC(O)c1cc2c(F)cc(F)cc2c2cc(C(F)(F)F)ccc12)=N\N=C\c1ccc(F)cc1` (centres unmarked) [Compound 1], for which the IC50 in data set [4] was 27.7 µM. Further, the “cured (number of parasite-free mice on day 30)” value in data set [1] (4 × 10 mg/kg oral) is listed as 2/3; in [1] (4 × 30 mg/kg oral), 1/3; in data set [1] (4 × 50 mg/kg oral), 1/3. In addition, in data set [1] (setting [12]), the “MSD (mean survival time)” value was found to be 26 days. Also, the “effect of pfmdr1 copy number on sensitivity” value in data set [5] is “the decrease from two to one pfmdr1 copy caused a further sensitization”.
`COc1ccc(/N=C(\N)CC(O)c2cc3c(F)cc(F)cc3c3cc(C(F)(F)F)ccc23)cc1.Cl` (centres unmarked) [Compound 22, (Z)-3-(1,3-Difluoro-6-(trifluoromethyl)phenanthrene-9-yl)-3-hydroxy-N′-(4-methoxyphenyl)propanimidamide Hydrochloride]: the AUC(0-inf) in [6] (3 mg/kg) was 30 ng·h/mL; in data set [6] (10 mg/kg) it was 365 ng·h/mL; in data set [6] (30 mg/kg), 1310 ng·h/mL. The AUC(0-t) in data set [6] (3 mg/kg) turned out to be 28.9 ng·h/mL; in data set [6] (10 mg/kg), 361 ng·h/mL; in data set [6] (30 mg/kg), 1080 ng·h/mL. Also, the values for the half-life in data set [6] (3 mg/kg), in data set [6] (10 mg/kg) and in [6] (30 mg/kg) were 329 min, 316 min and 597 min, respectively. Further, the k el was 3.69e-05 s⁻¹ in data set [6] (3 mg/kg, single oral dose 3 mg/kg, mouse I); 3.51e-05 s⁻¹ in data set [6] (3 mg/kg, single oral dose 3 mg/kg, mouse II); 4.66e-05 s⁻¹ in [6] (10 mg/kg, single oral dose 10 mg/kg, mouse I); 3.66e-05 s⁻¹ in data set [6] (10 mg/kg, single oral dose 10 mg/kg, mouse II); 1.94e-05 s⁻¹ in data set [6] (30 mg/kg, single oral dose 30 mg/kg, mouse I); 2.74e-05 s⁻¹ in [6] (30 mg/kg, single oral dose 30 mg/kg, mouse II). In addition, the cure rate in [1] (30 mg/kg once daily oral for 4 consecutive days) worked out at 33%; in [1] (50 mg/kg once daily oral for 4 consecutive days) it was 66%. In addition, the results for the “MSD (mean survival time)” value in data set [1] (4 × 3 mg/kg oral) and in [1] (setting [12]) were “euthanized” and 28 days, respectively. Further, the “cured (number of parasite-free mice on day 30)” value in data set [1] (4 × 3 mg/kg oral) is 0/3; in [1] (4 × 10 mg/kg oral), 0/3; in [1] (4 × 30 mg/kg oral), 1/3; in data set [1] (4 × 50 mg/kg oral) it was 2/3. Further, the “signs of toxicity during the in vivo studies” value in [1] (mice, oral doses 3-50 mg/kg) is listed as “no obvious signs of toxicity”. The entries for the “outcome of resistance selection” value in [7] and in data set [8] were “no viable parasites after 60 days” and “unable to readily generate resistant parasites”, respectively. In data set [5], the “effect of pfmdr1 copy number on sensitivity” value is listed as “the decrease from two to one pfmdr1 copy caused a further sensitization”. Besides, the “shift in IC50 value in compound 1-resistant clones” value in [9] amounted to 1.6 fold. Besides, the “inhibition of hemoglobin degradation” value in data set [10] is “some inhibition of hemoglobin degradation”.
With `Cl.N/C(CC(O)c1c2ccccc2cc2ccccc12)=N\c1ccc(F)cc1` (centres unmarked) [Compound 23, (Z)-3-(Anthracene-9-yl)-N′-(4-fluorophenyl)-3-hydroxypropanimidamide Hydrochloride], the “cured (number of parasite-free mice on day 30)” value in data set [1] (4 × 50 mg/kg oral) was 0/3. In [1] (4 × 50 mg/kg oral, monitored up to 30 days), the “MSD (mean survival time)” value is “euthanized”. The activity in data set [1] (4 × 50 mg/kg oral, parasitemia by FACS on day 4, 50 mg/kg) is on record as 44%.
Turning to `CCCCN(CCCC)CCC(O)c1cc2c(Cl)cc(Cl)cc2c2cc(C(F)(F)F)ccc12` (centres unmarked) [HF, Halofantrine], in data set [11], the plasma protein binding worked out at 100%.
Regarding `CCCCN(CCCC)CC(O)c1cc(Cl)cc2c1-c1ccc(Cl)cc1/C2=C/c1ccc(Cl)cc1` (centres unmarked) [LUM, Lumefantrine, reference compound], the “cured (number of parasite-free mice on day 30)” value in data set [1] (4 × 30 mg/kg oral) is listed as 3/3.
